# US20240101570A1 (AMGEN INC., priority 2020, published 2024)
# How the values were obtained:
# [1] = system: HCT116 MTAP null cells; experiment: HCT116 MTAP null cell proliferation / viability (CellTiter-Glo, 6 days); assay type: cell-based; settings: HCT116-MTAP null, 144 h, HCT116 MTAP null cells, 6 days, CellTiter-Glo; read-out: HCT-116 MTAP null IC50
# Summary of the method: (§1)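 IC50 values derive from sigmoidal dose-response fits, some with Hill slope fixed at −1 and top constrained to 100%, others from 4-parameter logistic models. They reflect CellTiter-Glo viability after 6 days of compound exposure at up to 10 or 50 μM.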
# [2] = system: HCT116 WT cells; experiment: HCT116 WT cell proliferation / viability (CellTiter-Glo, 6 days); assay type: cell-based; settings: Homo sapiens, HCT-116, 144 h, HCT116 WT cells, 6 days, CellTiter-Glo; read-out: HCT-116 WT IC50
# Summary of the method: as §1
structure (smiles),measurement,setting,value
"C[C@H](c1ccc(C(F)(F)F)cn1)N(C)C(=O)c1cc2c3c(c(N)nc2cn1)COC3 (single isomer, unassigned) [Example 854]",IC50,[1],86 nM
same,IC50,[2],3280 nM
"CC1OCc2c1c(N)nc1ccc(C(=O)N(Cc3ccc(C(F)(F)F)cn3)C3CC34CCCC4)cc21 (stereo not drawn) [Example 909, 4-amino-3-methyl-N-(spiro[2.4]heptan-1-yl)-N-((5-(trifluoromethyl)pyridin-2-yl)methyl)-1,3-dihydrofuro[3,4-c]quinoline-8-carboxamide]",IC50,[1],215 nM
same,IC50,[2],8000 nM
"CC(C)N(Cc1ccc(C(F)(F)F)cn1)C(=O)c1ccc2nc(N)c3c(c2c1)COC3(C)C [Example 934, 4-amino-N-isopropyl-3,3-dimethyl-N-((5-(trifluoromethyl)pyridin-2-yl)methyl)-1,3-dihydrofuro[3,4-c]quinoline-8-carboxamide]",IC50,[1],79 nM
same,IC50,[2],> 1000 nM
"CN(Cc1ccc(C#N)cn1)C(=O)c1cc2c3c(c(N)nc2cc1F)COC3 [Example 479, 4-amino-N-((5-cyano-2-pyridinyl)methyl)-7-fluoro-N-methyl-1,3-dihydrofuro[3,4-c]quinoline-8-carboxamide]",IC50,[1],328 nM
same,IC50,[2],17100 nM
"C[C@H]1OCc2c1c(N)nc1cnc(C(=O)N(Cc3ccc(C4CC4)cn3)C3CC3)cc21 [Example 416, (3R)-4-amino-N-cyclopropyl-N-((5-cyclopropyl-2-pyridinyl)methyl)-3-methyl-1,3-dihydrofuro[3,4-c][1,7]naphthyridine-8-carboxamide]",IC50,[1],62 nM
same,IC50,[2],8230 nM
"CCN(Cc1ccc(C(F)(F)F)cn1)C(=O)c1ccc2nc(N)c3c(c2c1)COC3(C)C [Example 933, 4-amino-N-ethyl-3,3-dimethyl-N-((5-(trifluoromethyl)pyridin-2-yl)methyl)-1,3-dihydrofuro[3,4-c]quinoline-8-carboxamide]",IC50,[1],560 nM
same,IC50,[2],> 10000 nM
"CCN(C(=O)c1ccc2nc(N)c3c(c2c1)COC3)[C@H](C)c1ccc(C#N)cn1 (single isomer, unassigned) [Example 838]",IC50,[1],161 nM
same,IC50,[2],8590 nM
"CC1OCc2c1c(N)nc1ccc(C(=O)N(Cc3ccc(C(F)(F)F)cn3)Cc3cnc(N)s3)cc21 (stereo not drawn) [Example 918, 4-amino-N-((2-aminothiazol-5-yl)methyl)-3-methyl-N-((5-(trifluoromethyl)pyridin-2-yl)methyl)-1,3-dihydrofuro[3,4-c]quinoline-8-carboxamide]",IC50,[1],54 nM
same,IC50,[2],> 1000 nM
"CCN(C(=O)c1cc2c3c(c(N)nc2cn1)COC3)[C@H](C)c1ccc(C(F)(F)F)cn1 (single isomer, unassigned) [Example 823]",IC50,[1],528 nM
same,IC50,[2],16200 nM
"C[C@@H]1OCc2c1c(N)nc1cnc(C(=O)N(Cc3ccc(C(F)(F)F)cn3)c3cnn(C)c3)cc21 (single isomer, unassigned) [Example 827]",IC50,[1],1250 nM
same,IC50,[2],47200 nM
"C[C@H]1OCc2c1c(N)nc1cnc(C(=O)N(Cc3ccc(C(F)(F)F)cn3)CC3CC3)cc21 [Example 396, (3R)-4-amino-N-(cyclopropylmethyl)-3-methyl-N-((5-(trifluoromethyl)-2-pyridinyl)methyl)-1,3-dihydrofuro[3,4-c][1,7]naphthyridine-8-carboxamide]",IC50,[1],20 nM
same,IC50,[2],629 nM
"Nc1nc2ccc(C(=O)N(Cc3ccc(C(F)(F)F)cn3)c3cccc(F)c3)cc2c2c1COC2 [Example 883, 4-amino-N-(3-fluorophenyl)-N-((5-(trifluoromethyl)-2-pyridinyl)methyl)-1,3-dihydrofuro[3,4-c]quinoline-8-carboxamide]",IC50,[1],20 nM
same,IC50,[2],514 nM
"C[C@H](c1ncccn1)N(Cc1ccc(Br)nn1)C(=O)c1cc2c3c(c(N)nc2cn1)COC3 [Example 673, 4-amino-N-((6-bromo-3-pyridazinyl)methyl)-N-((1R)-1-(2-pyrimidinyl)ethyl)-1,3-dihydrofuro[3,4-c][1,7]naphthyridine-8-carboxamide]",IC50,[1],110 nM
same,IC50,[2],3260 nM
"CC(C)N(Cc1ccc(C(F)(F)F)cn1)C(=O)c1cc2c3c(c(N)nc2cc1F)CCO3 [Example 536, 4-amino-7-fluoro-N-(2-propanyl)-N-((5-(trifluoromethyl)-2-pyridinyl)methyl)-2,3-dihydrofuro[3,2-c]quinoline-8-carboxamide]",IC50,[1],50 nM
same,IC50,[2],325 nM
"Cc1ccc(CN(C)C(=O)c2cc3c(cc2F)nc(N)c2cnn(C)c23)nc1 [Example 769, 4-amino-7-fluoro-N,1-dimethyl-N-((5-methyl-2-pyridinyl)methyl)-1H-pyrazolo[4,3-c]quinoline-8-carboxamide]",IC50,[1],115 nM
same,IC50,[2],7500 nM
"C[C@H]1OCc2c1c(N)nc1ccc(C(=O)N(C)Cc3ccc(S(F)(F)(F)(F)F)cc3)cc21 [Example 514, (3R)-4-amino-N,3-dimethyl-N-(4-(pentafluoro-lambda~6~- sulfanyl)benzyl)-1,3-dihydrofuro[3,4-c]quinoline-8-carboxamide]",IC50,[1],71 nM
same,IC50,[2],3250 nM
"CN(Cc1ccc(C(F)(F)F)cn1)C(=O)c1ccc2nc(N)c3cnn(C)c3c2c1 [Example 567, 4-amino-N,1-dimethyl-N-((5-(trifluoromethyl)-2-pyridinyl)methyl)-1H-pyrazolo[4,3-c]quinoline-8-carboxamide]",IC50,[1],90 nM
same,IC50,[2],6790 nM
"CN(Cc1ccc(S(F)(F)(F)(F)F)cc1)C(=O)c1cc2c3c(c(N)nc2cn1)COC3 [Example 511, 4-amino-N-methyl-N-(4-(pentafluoro-lambda~6~- sulfanyl)benzyl)-1,3-dihydrofuro[3,4-c][1,7]naphthyridine-8-carboxamide]",IC50,[1],122 nM
same,IC50,[2],4920 nM
"Cc1noc2c1c(N)nc1ccc(C(=O)N(Cc3ccc(C(F)(F)F)cn3)C(C)c3ncccn3)cc12 (racemic) [Example 619, 4-amino-3-methyl-N-((1R)-1-(2-pyrimidinyl)ethyl)-N-((5-(trifluoromethyl)-2-pyridinyl)methyl)[1,2]oxazolo[4,5-c]quinoline-8-carboxamide and 4-amino-3-methyl-N-((1S)-1-(2-pyrimidinyl)ethyl)-N-((5-(trifluoromethyl)-2-pyridinyl)methyl)[1,2]oxazolo[4,5-c]quinoline-8-carboxamide]",IC50,[1],61 nM
same,IC50,[2],1060 nM
"Cn1cc(N(Cc2ccc(C(F)(F)F)cn2)C(=O)c2cc3c(cc2F)nc(N)c2c3cnn2C)cn1 [Example 506, 4-amino-7-fluoro-3-methyl-N-(1-methyl-1H-pyrazol-4-yl)-N-((5-(trifluoromethyl)-2-pyridinyl)methyl)-3H-pyrazolo[3,4-c]quinoline-8-carboxamide]",IC50,[1],9 nM
same,IC50,[2],369 nM
"CCN(Cc1ccc(C(F)(F)F)nc1)C(=O)c1ccc2nc(N)c3c(c2c1)COC3 [Example 703, 4-amino-N-ethyl-N-((6-(trifluoromethyl)-3-pyridinyl)methyl)-1,3-dihydrofuro[3,4-c]quinoline-8-carboxamide]",IC50,[1],337 nM
same,IC50,[2],8150 nM
"CCN(Cc1ccc(C(F)(F)F)nn1)C(=O)c1ccc2nc(N)c3cnn(C)c3c2c1 [Example 548, 4-amino-N-ethyl-1-methyl-N-((6-(trifluoromethyl)-3-pyridazinyl)methyl)-1H-pyrazolo[4,3-c]quinoline-8-carboxamide]",IC50,[1],78 nM
same,IC50,[2],6870 nM
"CC1OCc2c1c(N)nc1ccc(C(=O)N(Cc3ccc(C(F)(F)F)cn3)C3CCCC3C#N)cc21 (stereo not drawn) [Example 897, 4-amino-N-(2-cyanocyclopentyl)-3-methyl-N-((5-(trifluoromethyl)pyridin-2-yl)methyl)-1,3-dihydrofuro[3,4-c]quinoline-8-carboxamide]",IC50,[1],24 nM
same,IC50,[2],110 nM
"C[C@H](c1ncccn1)N(Cc1ccc(C(F)(F)F)nn1)C(=O)c1ccc2nc(N)c3c(c2c1)CCC3 (single isomer, unassigned) [Example 649]",IC50,[1],14 nM
same,IC50,[2],181 nM
"CC(C)N(Cc1ccc(C(F)(F)F)cn1)C(=O)c1cc2c(cc1F)nc(N)c1cnn(C)c12 [Example 805, 4-amino-7-fluoro-1-methyl-N-(2-propanyl)-N-((5-(trifluoromethyl)-2-pyridinyl)methyl)-1H-pyrazolo[4,3-c]quinoline-8-carboxamide]",IC50,[1],8 nM
same,IC50,[2],121 nM
"CCN(Cc1ccc(C(F)(F)F)nn1)C(=O)c1cc2c(cc1F)nc(N)c1cnn(C)c12 [Example 555, 4-amino-N-ethyl-7-fluoro-1-methyl-N-((6-(trifluoromethyl)-3-pyridazinyl)methyl)-1H-pyrazolo[4,3-c]quinoline-8-carboxamide]",IC50,[1],23 nM
same,IC50,[2],2040 nM
"C[C@H]1OCc2c1c(N)nc1ccc(C(=O)N(Cc3ccc(C(F)(F)F)cn3)C3CC3)cc21 [Example 351, (3R)-4-amino-N-cyclopropyl-3-methyl-N-((5-(trifluoromethyl)-2-pyridinyl)methyl)-1,3-dihydrofuro[3,4-c]quinoline-8-carboxamide]",IC50,[1],48 nM
same,IC50,[2],3510 nM
"COC(=O)N1CC=C(c2ccc(CN(C)C(=O)c3ccc4nc(N)c5c(c4c3)COC5)nc2)CC1 [Example 430, methyl 6-((((4-amino-1,3-dihydrofuro[3,4-c]quinolin-8-yl)carbonyl)(methyl)amino)methyl)-3′,6′-dihydro[3,4′-bipyridine]-1′(2′H)-carboxylate]",IC50,[1],312 nM
same,IC50,[2],12800 nM
"Nc1nc2ccc(C(=O)N(Cc3ccc(C4CC4)cn3)C3CC3)cc2c2c1COC2 [Example 343, 4-amino-N-cyclopropyl-N-((5-cyclopropyl-2-pyridinyl)methyl)-1,3-dihydrofuro[3,4-c]quinoline-8-carboxamide]",IC50,[1],270 nM
same,IC50,[2],8240 nM
"C[C@@H](c1ccc(C(F)(F)F)cn1)N(C)C(=O)c1ccc2nc(N)c3cnn(C)c3c2c1 (single isomer, unassigned) [Example 601]",IC50,[1],997 nM
same,IC50,[2],21200 nM
